Measured values reported in publication PMC9934367, “Functional impact of subunit composition and compensation on Drosophila melanogaster nicotinic receptors–targets of neonicotinoids” (PLOS Genetics, 2023).

Test system: D. melanogaster nAChRs
Assay: Comparison of agonist activity between nAChRs expressed in X. laevis oocytes (one-way ANOVA, Kruskal-Wallis);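 for Difference of Imax values: Imax relative to maximal plateau response to ACh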
Type: cell-based
Outline: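 Agonist pEC50 values, derived from Hill fits of normalised peak currents, were compared across receptors by one-way ANOVA or Kruskal-Wallis. Currents came from oocytes clamped at −100 mV and perfused with atropine-containing saline (0.5 μM), 3–4 days after cRNA injection of fly nAChR subunits and co-factors.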

[1] = Dα1/Dβ1/Dβ2 vs. Dα1/Dα3/Dβ1/Dβ2
[2] = Dα1/Dβ1/Dβ2 vs. Dα2/Dα3/Dβ1/Dβ2
[3] = Dα1/Dβ1 vs. Dα1/Dα2/Dα3/Dβ1/Dβ2
[4] = Dα2/Dα3/Dβ1/Dβ2 vs. Dα1/Dα2/Dα3/Dβ1/Dβ2
[5] = Dα2/Dα3/Dβ1 vs. Dα1/Dα2/Dα3/Dβ1
[6] = Dα2/Dα3/Dβ1 vs. Dα1/Dα2/Dα3/Dβ1/Dβ2
[7] = Dα2/Dα3/Dβ1 vs. Dα1/Dα2/Dβ1/Dβ2
[8] = Dα2/Dα3/Dβ1 vs. Dα1/Dα3/Dβ1/Dβ2
[9] = Dα2/Dα3/Dβ1 vs. Dα2/Dα3/Dβ1/Dβ2
[10] = Dα3/Dβ1/Dβ2 vs. Dα1/Dα2/Dα3/Dβ1/Dβ2
[11] = Dα3/Dβ1/Dβ2 vs. Dα1/Dα2/Dβ1/Dβ2
[12] = Dα3/Dβ1/Dβ2 vs. Dα1/Dα3/Dβ1/Dβ2
[13] = Dα3/Dβ1/Dβ2 vs. Dα2/Dα3/Dβ1/Dβ2
[14] = Dα3/Dβ1 vs. Dα1/Dα2/Dα3/Dβ1/Dβ2

O=[N+]([O-])NC1=NCCN1Cc1ccc(Cl)nc1 [Imidacloprid, imidacloprid]
Difference of Imax values [1]: -0.254
Difference of pEC50 values [1]: -0.53
Difference of Imax values [2]: -0.049
Difference of pEC50 values [2]: -0.01
Difference of Imax values (Dα1/Dβ1/Dβ2 vs. Dα3/Dβ1/Dβ2): 0.037
Difference of pEC50 values (Dα1/Dβ1/Dβ2 vs. Dα3/Dβ1/Dβ2): -1.29
Difference of Imax values (Dα1/Dβ1 vs. Dα1/Dα2/Dα3/Dβ1): 0.028
Difference of pEC50 values (Dα1/Dβ1 vs. Dα1/Dα2/Dα3/Dβ1): 0.08
Difference of Imax values [3]: -0.020
Difference of pEC50 values [3]: 0.69
Difference of Imax values (Dα1/Dβ1 vs. Dα1/Dα2/Dβ1): 0.091
Difference of pEC50 values (Dα1/Dβ1 vs. Dα1/Dα2/Dβ1): 0.45
Difference of Imax values (Dα1/Dβ1 vs. Dα1/Dα2/Dβ1/Dβ2): -0.043
Difference of pEC50 values (Dα1/Dβ1 vs. Dα1/Dα2/Dβ1/Dβ2): 0.71
Difference of Imax values (Dα1/Dβ1 vs. Dα1/Dα3/Dβ1): -0.048
Difference of pEC50 values (Dα1/Dβ1 vs. Dα1/Dα3/Dβ1): -0.42
Difference of Imax values (Dα1/Dβ1 vs. Dα1/Dα3/Dβ1/Dβ2): -0.208
Difference of pEC50 values (Dα1/Dβ1 vs. Dα1/Dα3/Dβ1/Dβ2): -0.36
Difference of Imax values (Dα1/Dβ1 vs. Dα1/Dβ1/Dβ2): 0.046
Difference of pEC50 values (Dα1/Dβ1 vs. Dα1/Dβ1/Dβ2): 0.17
Difference of Imax values (Dα1/Dβ1 vs. Dα2/Dα3/Dβ1): 0.021
Difference of pEC50 values (Dα1/Dβ1 vs. Dα2/Dα3/Dβ1): 0.28
Difference of Imax values (Dα1/Dβ1 vs. Dα2/Dα3/Dβ1/Dβ2): -0.003
Difference of pEC50 values (Dα1/Dβ1 vs. Dα2/Dα3/Dβ1/Dβ2): 0.16
Difference of Imax values (Dα1/Dβ1 vs. Dα3/Dβ1): 0.090
Difference of pEC50 values (Dα1/Dβ1 vs. Dα3/Dβ1): -1.16
Difference of Imax values (Dα1/Dβ1 vs. Dα3/Dβ1/Dβ2): 0.083
Difference of pEC50 values (Dα1/Dβ1 vs. Dα3/Dβ1/Dβ2): -1.12
Difference of Imax values [4]: -0.017
Difference of pEC50 values [4]: 0.53
Difference of Imax values [5]: 0.007
Difference of pEC50 values [5]: -0.20
Difference of Imax values [6]: -0.041
Difference of pEC50 values [6]: 0.41
Difference of Imax values [7]: -0.064
Difference of pEC50 values [7]: 0.43
Difference of Imax values [8]: -0.229
Difference of pEC50 values [8]: -0.64
Difference of Imax values (Dα2/Dα3/Dβ1 vs. Dα1/Dβ1/Dβ2): 0.025
Difference of pEC50 values (Dα2/Dα3/Dβ1 vs. Dα1/Dβ1/Dβ2): -0.11
Difference of Imax values [9]: -0.024
Difference of pEC50 values [9]: -0.12
Difference of Imax values (Dα2/Dα3/Dβ1 vs. Dα3/Dβ1/Dβ2): 0.062
Difference of pEC50 values (Dα2/Dα3/Dβ1 vs. Dα3/Dβ1/Dβ2): -1.40
Difference of Imax values [10]: -0.103
Difference of pEC50 values [10]: 1.81
Difference of Imax values [11]: -0.126
Difference of pEC50 values [11]: 1.83
Difference of Imax values [12]: -0.291
Difference of pEC50 values [12]: 0.76
Difference of Imax values [13]: -0.086
Difference of pEC50 values [13]: 1.28
Difference of Imax values (Dα3/Dβ1 vs. Dα1/Dα2/Dα3/Dβ1): -0.062
Difference of pEC50 values (Dα3/Dβ1 vs. Dα1/Dα2/Dα3/Dβ1): 1.24
Difference of Imax values [14]: -0.110
Difference of pEC50 values [14]: 1.85
Difference of Imax values (Dα3/Dβ1 vs. Dα1/Dα2/Dβ1): 0.001
Difference of pEC50 values (Dα3/Dβ1 vs. Dα1/Dα2/Dβ1): 1.61
Difference of Imax values (Dα3/Dβ1 vs. Dα1/Dα2/Dβ1/Dβ2): -0.133
Difference of pEC50 values (Dα3/Dβ1 vs. Dα1/Dα2/Dβ1/Dβ2): 1.87
Difference of Imax values (Dα3/Dβ1 vs. Dα1/Dα3/Dβ1): -0.138
Difference of pEC50 values (Dα3/Dβ1 vs. Dα1/Dα3/Dβ1): 0.74
Difference of Imax values (Dα3/Dβ1 vs. Dα1/Dα3/Dβ1/Dβ2): -0.298
Difference of pEC50 values (Dα3/Dβ1 vs. Dα1/Dα3/Dβ1/Dβ2): 0.80
Difference of Imax values (Dα3/Dβ1 vs. Dα1/Dβ1/Dβ2): -0.044
Difference of pEC50 values (Dα3/Dβ1 vs. Dα1/Dβ1/Dβ2): 1.33
Difference of Imax values (Dα3/Dβ1 vs. Dα2/Dα3/Dβ1): -0.069
Difference of pEC50 values (Dα3/Dβ1 vs. Dα2/Dα3/Dβ1): 1.44
Difference of Imax values (Dα3/Dβ1 vs. Dα2/Dα3/Dβ1/Dβ2): -0.093
Difference of pEC50 values (Dα3/Dβ1 vs. Dα2/Dα3/Dβ1/Dβ2): 1.32
Difference of Imax values (Dα3/Dβ1 vs. Dα3/Dβ1/Dβ2): -0.007
Difference of pEC50 values (Dα3/Dβ1 vs. Dα3/Dβ1/Dβ2): 0.04
